Common to all, as to assay: NCI tumour cell line growth inhibition, 48 h
Test [1] has as its system ACHN.
Test [2] has as its system DU-145.
In test [3] the test system is HL-60.
Test [4] deals with HOP-62.
In test [5] the test system is LOX IMVI.
The test system of test [6] is M14.
The test system of test [7] is MDA-N.
The test system of test [8] is MOLT-4.
The test system of test [9] is NCI-H460.
Test [10] deals with NCI/ADR-RES.
Test [11] relates to OVCAR-5.
Test [12] has as its system SK-MEL-28.
The subject of test [13] is UACC-62.
The subject of test [14] is UO-31.
Test [15] has as its system COLO 205.
Test [16] concerns HOP-92.
In test [17] the test system is NCI-H522.
Test [18] deals with SW-620.
For test [19], the system named is TK-10.
In test [20] the test system is SR.

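Compound exposure: 48 hours, 5 concentrations, 96-well plates. GI50 = concentration required for 50% inhibition of growth.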 Active and inactive are the calls of the source. Rule as the data show it: active = GI50 up to about 1.1 µM and inactive = higher.

As for `CN1CCN(CCCN2c3ccccc3Sc3ccc(C(F)(F)F)cc32)CC1`, the GI50 was 11.9 µM (inactive) in [1]; 16.4 µM (inactive) in [2]; 6.14 µM (inactive) in test [3]; 13.1 µM (inactive) in test [4]; 4.57 µM (inactive) in [5]; 1.88 µM (inactive) in test [6]. Further, the GI50 in [7] is 3.6 µM (inactive); in test [8] it was 4.6 µM (inactive); in test [9] it was 3.86 µM (inactive); in test [10], 11.6 µM (inactive); in test [11], 10.1 µM (inactive); in test [12] it was 1.82 µM (inactive). In addition, the results for the GI50 in test [13] and in test [14] were 2.1 µM (inactive) and 5.21 µM (inactive), respectively.

Regarding `CN(C)Cc1nsc(N(C)C)n1`, the GI50 in test [1], in test [15], in test [2], in [4], in test [16] and in test [5] was > 100 µM (inactive) in each case. Further, the GI50 in test [6], in [7], in [9], in [17], in test [10] and in [11] was > 100 µM (inactive) throughout. Also, the GI50 in [12], in [18], in test [19], in test [13] and in [14] was > 100 µM (inactive) throughout.

With `O=S(=O)(c1ccccc1)n1c2cc3cccnc3nc2c2cccnc21`, the GI50 is 62.7 µM (inactive) in test [1]; 72.9 µM (inactive) in test [15]; 17.9 µM (inactive) in test [3]; 60 µM (inactive) in [4]; 21.1 µM (inactive) in test [16]; 42.5 µM (inactive) in [5]. The GI50 in test [6] is > 100 µM (inactive); in [7], 38.2 µM (inactive); in test [8], 45.3 µM (inactive); in test [9], 36.9 µM (inactive); in test [17] it was 33.3 µM (inactive); in test [10], > 100 µM (inactive). The GI50 in [11] was > 100 µM (inactive); in test [12] it was > 100 µM (inactive); in test [20] it was 10.9 µM (inactive); in test [18], 44.7 µM (inactive); in test [19], > 100 µM (inactive); in [14] it was > 100 µM (inactive).

As to `Nc1ccccc1C(=O)NNC(=O)c1ccccc1N`, the GI50 in test [1], in [15], in test [2], in test [3], in test [4] and in test [16] was > 100 µM (inactive) each time. Also, the GI50 in test [5], in test [6], in test [7], in test [8], in test [17] and in [10] was > 100 µM (inactive) in each case. Also, the GI50 in [11], in [12], in [18], in [19], in test [13] and in test [14] was > 100 µM (inactive) in each case.

`CC1(C)C2CCC1(C)C(N/C(Sc1ccccc1)=C(/C(Cl)=C(Cl)Cl)[N+](=O)[O-])C2` (centres undefined): the GI50 is 13.5 µM (inactive) in test [1]; 17.7 µM (inactive) in test [2]; 18.5 µM (inactive) in [4]; 13.2 µM (inactive) in test [6]; 10.6 µM (inactive) in [7]; 3.22 µM (inactive) in test [8]. Further, the GI50 is 15.3 µM (inactive) in test [9]; 14 µM (inactive) in [10]; 13.9 µM (inactive) in test [11]; 12.4 µM (inactive) in test [12]; 11.7 µM (inactive) in [18]; 9.14 µM (inactive) in [13]. Also, the GI50 in test [14] was 13.2 µM (inactive).

Take `Cc1ccc(S(=O)(=O)N2CCCSCCSCCCSCC2)cc1`: the GI50 in test [15], in test [2], in test [3], in [4], in test [16] and in [5] was > 100 µM (inactive) each time. Also, the GI50 in test [6], in [8], in test [9], in test [17], in test [10] and in test [11] was > 100 µM (inactive) throughout. In addition, the GI50 in [12], in test [20], in [18], in [19], in test [13] and in [14] was > 100 µM (inactive) each time.

On to `COc1c(C=O)c2c(c(OC)c1OC)-c1ccc(OC)c(=O)cc1[C@@H](NC(C)=O)CC2`, for which the GI50 was 1.17 µM (inactive) in [1]; 0.0239 µM (active) in test [15]; 0.415 µM (active) in [2]; < 0.01 µM (active) in test [3]; 0.36 µM (active) in test [4]; 0.0288 µM (active) in [16]. Moreover, the GI50 is 0.015 µM (active) in [5]; 0.051 µM (active) in test [6]; < 0.01 µM (active) in [7]; < 0.01 µM (active) in test [8]; 0.0771 µM (active) in test [9]; 0.0123 µM (active) in test [17]. For the same compound, the GI50 in [11] is 3.78 µM (inactive); in test [12] it was 4.08 µM (inactive); in test [20] it was < 0.01 µM (active); in test [18], 0.0148 µM (active); in test [19], 3.83 µM (inactive); in [13], 0.0412 µM (active). The GI50 in [14] is 11.5 µM (inactive).

For `C=CCn1c(-c2ccc([N+](=O)[O-])cc2)csc1=N`, the GI50 in test [1] is 83.2 µM (inactive); in test [15] it was > 100 µM (inactive); in test [2], 43.8 µM (inactive); in test [3] it was 18.9 µM (inactive); in test [4], 78.2 µM (inactive); in [16], 47.5 µM (inactive). In addition, the GI50 in [5] was 20.3 µM (inactive); in test [6], 56.9 µM (inactive); in [7] it was 29.1 µM (inactive); in test [9] it was 61.1 µM (inactive); in test [17], 36.6 µM (inactive); in test [10], 44.3 µM (inactive). The GI50 was > 100 µM (inactive) in test [11]; > 100 µM (inactive) in test [12]; 70 µM (inactive) in test [18]; 66.7 µM (inactive) in test [19]; 37.7 µM (inactive) in [13]; 37.2 µM (inactive) in [14].

Take `Cc1ccc(S[C@@H](C)[C@@](O)(CF)CN(Cc2ccccc2)C(=O)C(F)(F)F)cc1`: the GI50 is 22.1 µM (inactive) in [1]; 26.9 µM (inactive) in test [2]; 19.2 µM (inactive) in test [3]; 4.65 µM (inactive) in test [16]; 40.3 µM (inactive) in test [5]; 17.1 µM (inactive) in test [6]. In addition, the GI50 in test [7] was 22.8 µM (inactive); in [9] it was 15.5 µM (inactive); in [17], > 100 µM (inactive); in test [10], 20.6 µM (inactive); in test [11] it was 14.8 µM (inactive); in test [12], > 100 µM (inactive). In addition, the GI50 in [18] is 23.9 µM (inactive); in test [19], 35.2 µM (inactive); in [13], 13.8 µM (inactive); in test [14] it was 16.6 µM (inactive).

With `COC(=O)c1nsc(OC)c1Cl`, the GI50 in test [15], in [2], in test [3], in test [4], in test [5] and in test [6] was > 100 µM (inactive) in each case. Moreover, the GI50 in [7], in test [8], in test [10], in [11], in test [12] and in [18] was > 100 µM (inactive) each time. In addition, the GI50 in test [19], in test [13] and in [14] was > 100 µM (inactive) each time.

`CCC1(CC)SCc2nc3ccccc3n21`: the GI50 in test [1] was 30.1 µM (inactive); in test [15], 19.8 µM (inactive); in [2], 50 µM (inactive); in [3] it was 26 µM (inactive); in test [4] it was 37.1 µM (inactive); in test [16] it was 18 µM (inactive). Further, the GI50 in [5] was 34.8 µM (inactive); in test [6], 26.5 µM (inactive); in test [7], 34.9 µM (inactive); in [8], 22.8 µM (inactive); in [9], 36.9 µM (inactive); in [17], 37.6 µM (inactive). Besides, the GI50 in test [10] is 25.6 µM (inactive); in [11], 45.6 µM (inactive); in test [12], 37.2 µM (inactive); in test [18], 58.6 µM (inactive); in [19], 38.8 µM (inactive); in test [13], 39.4 µM (inactive). The GI50 in test [14] was 35.4 µM (inactive).

For `C=C1C(=O)OC2/C=C(\C)C(=O)CC3OC(C)(C)OC3(C)CC(OC(=O)/C(C)=C/C)C12` (centres undefined), the GI50 in test [1] is 3.68 µM (inactive); in test [15], 6.35 µM (inactive); in test [2], 19.4 µM (inactive); in [3], 3.26 µM (inactive); in test [4], 58.1 µM (inactive); in test [16] it was 13.6 µM (inactive). In addition, the GI50 in test [5] is 12.2 µM (inactive); in [6], 22.5 µM (inactive); in test [7] it was 13.2 µM (inactive); in [8], 6.61 µM (inactive); in test [9], 17.1 µM (inactive); in test [17], 2.99 µM (inactive). The GI50 was 20.4 µM (inactive) in test [11]; 11.9 µM (inactive) in test [12]; 3.05 µM (inactive) in test [20]; 4.69 µM (inactive) in [18]; 13.2 µM (inactive) in test [19]; 9.98 µM (inactive) in test [13]. Besides, the GI50 in test [14] was 13.9 µM (inactive).
